Experimental data from patent US8324245B2, “Quinoline derivative and quinazoline derivative inhibiting self-phosphorylation of hepatocytus proliferator receptor, and medicinal composition containing the same” (Kyowa Hakko Kirin Co., Ltd., priority 2001, dated 2012).

Target: T1, met (HGF receptor) in human gastric cancer cells MKN45 (Homo sapiens, UniProt P08581)
T1 construct: endogenous in cells; host or cells: MKN45 human gastric cancer cells
Assay: Inhibitory activity against met-autophosphorylation using ELISA method (2), MKN45 cells, HGF-independent
Format: cell-based
In short: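 Met autophosphorylation was read by sandwich ELISA: phosphotyrosine capture (PY20), anti-HGF receptor detection, peroxidase read-out at 450 nm. Lysates came from MKN45 gastric cancer cells kept in 0.1% FCS RPMI and treated 1 h at 37 °C with test compound, with no added HGF.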

T1 sequence (P08581 25-1390): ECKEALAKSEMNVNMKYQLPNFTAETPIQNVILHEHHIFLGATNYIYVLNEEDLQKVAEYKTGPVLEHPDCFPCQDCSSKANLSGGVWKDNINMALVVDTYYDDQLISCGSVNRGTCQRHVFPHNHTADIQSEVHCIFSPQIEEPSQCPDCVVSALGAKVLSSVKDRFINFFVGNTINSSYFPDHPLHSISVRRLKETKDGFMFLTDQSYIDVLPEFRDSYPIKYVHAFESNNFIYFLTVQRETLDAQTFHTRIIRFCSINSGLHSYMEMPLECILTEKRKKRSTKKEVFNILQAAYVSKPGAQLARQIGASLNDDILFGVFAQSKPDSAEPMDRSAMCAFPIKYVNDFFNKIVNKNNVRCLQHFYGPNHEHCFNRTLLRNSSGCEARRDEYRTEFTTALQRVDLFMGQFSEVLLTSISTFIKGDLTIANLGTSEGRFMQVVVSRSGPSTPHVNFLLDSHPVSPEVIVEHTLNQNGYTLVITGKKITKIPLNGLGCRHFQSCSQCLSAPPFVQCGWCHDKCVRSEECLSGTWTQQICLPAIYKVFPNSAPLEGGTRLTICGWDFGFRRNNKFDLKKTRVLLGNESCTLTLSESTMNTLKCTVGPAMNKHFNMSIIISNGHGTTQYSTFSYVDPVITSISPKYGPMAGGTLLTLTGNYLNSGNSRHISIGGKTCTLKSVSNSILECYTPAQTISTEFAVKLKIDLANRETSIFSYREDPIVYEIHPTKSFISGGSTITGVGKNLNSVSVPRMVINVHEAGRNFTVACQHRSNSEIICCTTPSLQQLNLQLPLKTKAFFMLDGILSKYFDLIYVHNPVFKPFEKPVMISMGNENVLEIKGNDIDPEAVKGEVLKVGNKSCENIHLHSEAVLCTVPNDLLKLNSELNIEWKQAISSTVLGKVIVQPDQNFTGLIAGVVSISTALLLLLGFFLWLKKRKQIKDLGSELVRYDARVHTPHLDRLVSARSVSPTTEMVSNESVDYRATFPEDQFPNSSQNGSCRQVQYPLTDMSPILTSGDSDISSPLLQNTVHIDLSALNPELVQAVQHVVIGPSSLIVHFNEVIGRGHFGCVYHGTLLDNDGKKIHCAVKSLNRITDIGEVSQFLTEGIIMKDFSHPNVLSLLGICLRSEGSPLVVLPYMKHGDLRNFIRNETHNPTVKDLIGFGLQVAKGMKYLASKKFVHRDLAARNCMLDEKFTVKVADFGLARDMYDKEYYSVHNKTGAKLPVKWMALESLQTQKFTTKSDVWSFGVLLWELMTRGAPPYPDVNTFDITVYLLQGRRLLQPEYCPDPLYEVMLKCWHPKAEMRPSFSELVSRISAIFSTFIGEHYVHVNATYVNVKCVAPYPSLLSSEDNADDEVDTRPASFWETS

SMILES: COc1cc2nccc(Oc3ccc(NC(=S)NC(=O)Cc4cccc(F)c4F)c(F)c3)c2cc1OC [Example 194, 1-[2-(2,3-difluorophenyl)acetyl]-3-[4-(6,7-dimethoxyquinolin-4-yloxy)-2-fluorophenyl]thiourea]
- IC50: 319 nM

SMILES: COc1cc2nccc(Oc3ccc(NC(=O)NC(=O)Nc4ccccn4)cc3)c2cc1OC [Example 236, N-(2-pyridyl)-({[4-(6,7-dimethoxyquinolin-4-yloxy)anilino]carbonyl}amino)methanamide]
- IC50: 235 nM

SMILES: COc1cc2nccc(Oc3ccc(NC(=S)NC(=O)Cc4c(F)cccc4F)cc3F)c2cc1OC [Example 95, 1-[2-(2,6-difluorophenyl)acetyl]-3-[4-(6,7-dimethoxyquinolin-4-yloxy)-3-fluorophenyl]thiourea]
- IC50: 41.3 nM

SMILES: COc1cc2c(Oc3ccc(NC(=S)NC(=O)Cc4ccccc4F)cc3Cl)ccnc2cc1OCCCN1CCOCC1 [Example 298, 1-{3-Chloro-4-[6-methoxy-7-(3-morpholin-4-yl-propoxy)-quinolin-4-yloxy]-phenyl}-3-[2-(2-fluoro-phenyl)-acetyl]-thiourea]
- IC50: 89 nM

SMILES: COc1cc2nccc(Oc3ccc(NC(=S)NC(=O)CC4C5CCC4CC5)cc3F)c2cc1OC (stereo not shown) [Example 90, 1-(2-bicyclo[2.2.1]hepto-7-ylacetyl)-3-[4-(6,7-dimethoxyquinolin-4-yloxy)-3-fluorophenyl]thiourea]
- IC50: 28.1 nM

SMILES: COc1cc2nccc(Oc3ccc(NC(=O)NC(=O)Cc4ccccc4)cc3)c2cc1OC [Example 4, 1-[4-(6,7-dimethoxyquinolin-4-yloxy)phenyl]-3-phenyl-acetylurea]
- IC50: 75 nM

SMILES: CCCCOCC(=O)NC(=S)Nc1ccc(Oc2ccnc3cc(OC)c(OC)cc23)c(Cl)c1 [Example 193, 1-(2-butoxyacetyl)-3-[3-chloro-4-(6,7-dimethoxyquinolin-4-yloxy)phenyl]thiourea]
- IC50: 444 nM

SMILES: COc1cc2nccc(Oc3ccc(NC(=S)NC(=O)Cc4ccccc4)c(C)c3)c2cc1OC [Example 162, 1-[4-(6,7-dimethoxyquinolin-4-yloxy)-2-methylphenyl]-3-phenylacetylthiourea]
- IC50: 210 nM

SMILES: COc1cc2nccc(Oc3ccc(NC(=O)NC(=O)Cc4ccccc4F)cc3F)c2cc1OC [Example 27, 1-[4-(6,7-dimethoxyquinolin-4-yloxy)-3-fluorophenyl]-3-[2-(2-fluorophenyl)acetyl]urea]
- IC50: 80 nM

SMILES: COc1cc2c(Oc3ccc(NC(=O)NC(=O)Cc4ccc(F)cc4)c(F)c3)ccnc2cc1OCc1ccccc1 [Example 40, N-(4-{[7-(Benzyloxy)-6-methoxy-4-quinolyl]oxy}-2-fluorophenyl)-N′-[2-(4-fluorophenyl)acetyl]urea]
- IC50: 242 nM

SMILES: COc1cc2nccc(Oc3ccc(NC(=O)NC(=O)Nc4ncccc4C)cc3)c2cc1OC [Example 233, N-(3-methyl-2-pyridyl)-({[4-(6,7-dimethoxy-quinolin-4-yloxy)anilino]carbonyl}amino)methanamide]
- IC50: 322 nM

SMILES: COc1cc2nccc(Oc3ccc(NC(=S)NC(=O)Cc4cc(F)cc(F)c4)cc3F)c2cc1OC [Example 197, 1-[2-(3,5-difluorophenyl)acetyl]-3-[4-(6,7-dimethoxyquinolin-4-yloxy)-3-fluorophenyl]thiourea]
- IC50: 284 nM

SMILES: COC(=O)c1ccccc1NC(=O)NC(=O)Nc1ccc(Oc2ccnc3cc(OC)c(OC)cc23)cc1 [Example 245, methyl 2-({({[4-(6,7-dimethoxyquinolin-4-yloxy)anilino]carbonyl}amino)carbonyl}amino)benzoate]
- IC50: 308 nM

SMILES: COc1cc2nccc(Oc3ccc(NC(=S)NC(=O)[C@H](C)c4ccccc4)cc3)c2cc1OC [Example 158, 1-[4-(6,7-dimethoxyquinolin-4-yloxy)phenyl]-3-(2-phenylpropionyl)thiourea]
- IC50: 465 nM

SMILES: COc1cc2c(Oc3ccc(NC(=O)CC(=O)Nc4ccc(F)cc4)cc3F)ccnc2cc1OCCCN1CCOCC1 [Example 269, N-{3-fluoro-4-[6-methoxy-7-(3-morpholin-4-yl-propoxy)quinolin-4-yloxy]phenyl}-N′-(4-fluorophenyl)-malonamide]
- IC50: 12.5 nM

SMILES: COc1cc2nccc(Oc3ccc(NC(=O)NC(=O)Nc4ccccc4Cl)cc3)c2cc1OC [Example 248, N-(2-chlorophenyl)-({[4-(6,7-dimethoxy-quinolin-4-yloxy)anilino]carbonyl}amino)methanamide]
- IC50: 957 nM

SMILES: COc1cc2nccc(Oc3ccc(NC(=O)NC(=O)Nc4ccccc4Br)cc3)c2cc1OC [Example 247, N-(2-bromophenyl)-({[4-(6,7-dimethoxy-quinolin-4-yloxy)anilino]carbonyl}amino)methanamide]
- IC50: 650 nM

SMILES: COc1cc2nccc(Oc3ccc(NC(=O)NC(=O)Cc4cccs4)cc3)c2cc1OC [Example 29, 1-[4-(6,7-dimethoxyquinolin-4-yloxy)phenyl]-3-(2-thiophen-2-ylacetyl)urea]
- IC50: 37.1 nM

SMILES: COc1cc2nccc(Oc3ccc(NC(=O)NC(=O)Cc4cc(F)cc(F)c4)cc3F)c2cc1OC [Example 142, 1-[2-(3,5-difluorophenyl)acetyl]-3-[4-(6,7-dimethoxyquinolin-4-yloxy)-3-fluorophenyl]urea]
- IC50: 285 nM

SMILES: COc1cc2nccc(Oc3ccc(NC(=S)NC(=O)Cc4ccc(F)cc4)c(F)c3)c2cc1OC [Example 72, 1-[4-(6,7-dimethoxyquinolin-4-yloxy)-2-fluoro-phenyl]-3-[2-(4-fluorophenyl)acetyl]thiourea]
- IC50: 27.9 nM

SMILES: COc1cccc(CC(=O)NC(=S)Nc2ccc(Oc3ccnc4cc(OC)c(OC)cc34)c(F)c2)c1 [Example 181, 1-[4-(6,7-dimethoxyquinolin-4-yloxy)-3-fluorophenyl]-3-[2-(3-methoxyphenyl)acetyl]thiourea]
- IC50: 243 nM

SMILES: COc1cc2nccc(Oc3ccc(NC(=S)NC(=O)c4cccc5ccccc45)cc3)c2cc1OC [Example 56, 1-[4-(6,7-dimethoxyquinolin-4-yloxy)phenyl]-3-(naphthalene-1-carbonyl)thiourea]
- IC50: 140 nM

SMILES: COc1cc2nccc(Oc3ccc(NC(=O)NC(=O)CN4CCC(Cc5ccccc5)CC4)cc3F)c2cc1OC [Example 120, 1-[2-(4-benzyl-piperidin-1-yl)acetyl]-3-[4-(6,7-dimethoxyquinolin-4-yloxy)-3-fluorophenyl]urea]
- IC50: 1570 nM

SMILES: COc1cc2c(Oc3ccc(NC(=S)NC(=O)Cc4ccc(C)cc4)cc3F)ccnc2cc1OCCCN1CCOCC1 [Example 304, 1-{3-Fluoro-4-[6-methoxy-7-(3-morpholin-4-yl-propoxy)-quinolin-4-yloxy]-phenyl}-3-(2-p-toluyl-acetyl)-thiourea]
- IC50: 65.9 nM

SMILES: COc1cc2nccc(Oc3ccc(NC(=O)NC(=O)CC4C5CCC4CC5)c(F)c3)c2cc1OC (stereo not shown) [Example 126, 1-(2-bicyclo[2.2.1]hepto-7-ylacetyl)-3-[4-(6,7-dimethoxyquinolin-4-yloxy)-2-fluorophenyl]urea]
- IC50: 330 nM

SMILES: COc1cc2nccc(Oc3ccc(NC(=O)NC(=O)CSC4CCCC4)cc3Cl)c2cc1OC [Example 116, 1-[3-chloro-4-(6,7-dimethoxyquinolin-4-yloxy)phenyl]-3-(2-cyclopentylsulfanylacetyl)urea]
- IC50: 344 nM

SMILES: COc1cc2nccc(Oc3ccc(NC(=O)NC(=O)Nc4ccc(C)cc4)cc3)c2cc1OC [Example 257, N-(4-methylphenyl)-({[4-(6,7-dimethoxy-quinolin-4-yloxy)anilino]carbonyl}amino)methanamide]
- IC50: 286 nM

SMILES: COc1cc2nccc(Oc3ccc(NC(=S)NC(=O)Cc4ccc(F)cc4)cc3Cl)c2cc1OC [Example 73, 1-[3-chloro-4-(6,7-dimethoxyquinolin-4-yloxy)-phenyl]-3-[2-(4-fluorophenyl)acetyl]thiourea]
- IC50: 28.1 nM

SMILES: CCCCC(=O)NC(=O)Nc1ccc(Oc2ccnc3cc(OC)c(OC)cc23)c(Cl)c1 [Example 109, 1-[3-chloro-4-(6,7-dimethoxyquinolin-4-yloxy)phenyl]-3-pentanoylurea]
- IC50: 1480 nM

SMILES: COc1cc2nccc(Oc3ccc(NC(=O)CC(=O)Nc4ccc(Cl)cc4)cc3)c2cc1OC [Example 219, N-(4-chlorophenyl)-N′-[4-(6,7-dimethoxy-quinolin-4-yloxy)phenyl]malonamide]
- IC50: 736 nM

SMILES: COc1cc2c(Oc3ccc(NC(=O)NC(=O)Cc4ccc(F)cc4)cc3F)ccnc2cc1OCCCCN1CCN(C)CC1 [Example 43, 1-(3-fluoro-4-{6-methoxy-7-[4-(4-methyl-piperazin-1-yl)-butoxy]quinolin-4-yloxy}phenyl)-3-[2-(4-fluorophenyl)acetyl]urea]
- IC50: 167 nM

SMILES: COc1cc2nccc(Oc3ccc(NC(=S)NC(=O)Cc4ccccc4C(F)(F)F)cc3F)c2cc1OC [Example 201, 1-[4-(6,7-dimethoxyquinolin-4-yloxy)-3-fluorophenyl]-3-[2-(2-trifluoromethylphenyl)acetyl]-thiourea]
- IC50: 226 nM

SMILES: COc1cc2nccc(Oc3ccc(NC(=S)NC(=O)Cc4ccccc4)c(F)c3)c2cc1OC [Example 58, 1-[4-(6,7-dimethoxyquinolin-4-yloxy)-2-fluorophenyl]-3-phenylacetylthiourea]
- IC50: 27 nM

SMILES: COc1cc2nccc(Oc3ccc(NC(=S)NC(=O)CCc4ccccc4C)cc3F)c2cc1OC [Example 64, 1-[4-(6,7-dimethoxyquinolin-4-yloxy)-3-fluoro-phenyl]-3-(3-o-tolylpropionyl)thiourea]
- IC50: 140 nM

SMILES: COc1cc2nccc(Oc3ccc(NC(=O)NC(=O)Nc4ccc5c(c4)OCCO5)cc3)c2cc1OC [Example 238, N-(2,3-dihydro-1,4-benzodioxin-6-yl)-({[4-(6,7-dimethoxyquinolin-4-yloxy)anilino]carbonyl}amino)-methanamide]
- IC50: 4020 nM

SMILES: COc1cc2nccc(Oc3ccc(NC(=O)CC(=O)Nc4ccc(F)cc4F)c(C)c3)c2cc1OC [Example 223, N-(2,4-difluorophenyl)-N′-[4-(6,7-dimethoxy-quinolin-4-yloxy)-2-methylphenyl]malonamide]
- IC50: 268 nM

SMILES: COc1cc2nccc(Oc3ccc(NC(=O)CC(=O)Nc4ccc(F)cc4F)cc3)c2cc1OC [Example 102, N-(2,4-difluorophenyl)-N′-[4-(6,7-dimethoxy-quinolin-4-yloxy)phenyl]malonamide]
- IC50: 91.8 nM
